pIC50: −log10 of the molar value.
Test system: Huh7, Mahlavu and MCF7
Test: SRB cytotoxicity, summary for all three cell lines
Assay type: cell-based
Conditions: Homo sapiens; one value or range for Huh7, Mahlavu and MCF7 together; read-out: IC50 against all three cell lines
Protocol: Mahlavu, FOCUS, SNU475 (1000 cell/well in 150 μL/well); Huh7, MCF7 (2500 cell/well in 150 μL/well); HepG2, Hep3B, SKBR3 (3000 cell/well in 150 μL/well); PLC-PRF-5, Hep40 (5000 cell/well in 150 μL/well); MDA-MB-231, MDA-MB-468, MCF10A (6000 cell/well in 150 μL/well); and ZR-75 (7500 cell/well in 150 μL/well) were cultured in 96-well plates and were inoculated in an incubator for 24 hours. The compounds were dissolved in dimethyl sulfoxide (DMSO) (Sigma, St Louis, MO) as a 20 mM stock solution. The treatment of cells with the compounds was done in a concentration range starting from 40 to 2.5 μM. The compounds which were below 2.5 μM were tested in a concentration range from 2.5 to 0.15 μM. End of the 72h compound treatment, the cells were fixed using 10% (v/v) trichloroacetic acid (MERCK) for an hour and washed with ddH2O, and left for air-drying. The fixed plates were stained with 50 μL of sulforhodamine B (SRB) solution (Sigma) at RT for 10 min. To remove unbound SRB dye, acetic acid was used to wash cells three times and left for drying. The protein-bound SRB was solubilized with 10 mM Tris-base (Sigma) and their absorbance was measured with a 96-well plate reader at 515 nm wavelength (ELx800, Biotek). The IC50 values of compounds were calculated in comparison with control group DMSO. Data with R^2 values larger than 0.9 are considered significant.

Question: With `Cc1ccccc1COc1ccc(-c2ccnn2-c2ccc(Cl)cc2)cc1` [compound 85, 1-(4-Chlorophenyl)-5-(4-((2-methylbenzyl)oxy)phenyl)-1H-pyrazole] as the molecule, how does the pIC50 read?
Answer: 4.84 to 6.15
